Test results taken from ChEMBL document CHEMBL4732152, “Flavonoids from Woodfordia fruticosa as potential SmltD inhibitors in the alternative biosynthetic pathway of peptidoglycan” (Bioorg Med Chem Lett, 2021).
The source made the active and inactive calls. No cut-off for these calls is given here. *1 amine or outer side, *2 acyl side, *3 side chain or, on linkers, in order; H or OH if unused. Where a SMILES comes first, the peptide text is derived from it. Bridges are numbered along the chain shown (N, C = ends). Roman numbers before positions name the chains, in order. [ ]: non-standard residue; d: D form. Actinocin(1to9) = Cc1c2oc3c(C)ccc(C(=O)[*:2])c3nc-2c(C(=O)[*:1])c(N)c1=O; NMeV = CN[C@H](C(=O)O)C(C)C; Sar = CNCC(=O)O

Assays:
[1] = Inhibition of Stenotrophomonas maltophilia SmltD using UDP-MurNAc-L-Ala[…] as substrate in presence of ATP incubated for 5 mins by HPLC
[2] = system: Stenotrophomonas maltophilia; experiment: Non-Competitive inhibition of Stenotrophomonas maltophilia SmltD using […] as substrate by Dixon plot analysis
[3] = system: Stenotrophomonas maltophilia; experiment: Non-Competitive inhibition of Stenotrophomonas maltophilia SmltD using UDP-MurNAc-L-Ala[…] as substrate by Dixon plot analysis
[4] = Competitive inhibition of Stenotrophomonas maltophilia SmltD assessed as inhibition constant using ATP as substrate by Dixon plot analysis

| IC50 ([1]; read-out: IC50) [µM] | Structure (SMILES) | other results |
| --- | --- | --- |
|  | OC[C@H]1O[C@@H](O)[C@H](O)[C@@H](O)[C@@H]1O [beta-D-Glucose] | IC50 [1]: Not Active |
| 1180 | O=c1c(O[C@@H]2O[C@H](CO)[C@@H](O)[C@H](O)[C@H]2O)c(-c2ccc(O)cc2)oc2cc(O)cc(O)c12 [ASTRAGALIN] |  |
| 14600 | Cc1c2oc3c(C)ccc(C(=O)N[C@@H]4C(=O)N[C@H](C(C)C)C(=O)N5CCC[C@H]5C(=O)N(C)CC(=O)N(C)[C@@H](C(C)C)C(=O)O[C@@H]4C)c3nc-2c(C(=O)N[C@@H]2C(=O)N[C@H](C(C)C)C(=O)N3CCC[C@H]3C(=O)N(C)CC(=O)N(C)[C@@H](C(C)C)C(=O)O[C@@H]2C)c(N)c1=O [DACTINOMYCIN] (I: T[dV]P[Sar][NMeV] / II: T[dV]P[Sar][NMeV]; ester I:1-I:C, II:1-II:C; linker I:N-II:N via Actinocin(1to9)) |  |
| 2050 | O=c1c(O[C@H]2OC[C@@H](O)[C@@H](O)[C@@H]2O)c(-c2ccc(O)cc2)oc2cc(O)cc(O)c12 |  |
| 2360 | O=c1c(O)c(-c2ccc(O)cc2)oc2cc(O)cc(O)c12 [KAEMPFEROL] |  |
| 460 | O=C(OC[C@H]1O[C@@H](Oc2c(-c3ccc(O)cc3)oc3cc(O)cc(O)c3c2=O)[C@H](O)[C@@H](O)[C@@H]1O)c1cc(O)c(O)c(O)c1 | inhibition [2]: Active; inhibition [3]: Active; Ki [4]: 110 µM |
|  | O[C@H]1[C@H](O)[C@@H](O)OC[C@H]1O | IC50 [1]: Not Active |

| Structure (SMILES) | IC50 ([1]; read-out: IC50) [µM] | other results |
| --- | --- | --- |
| O=C(O)c1cc(O)c(O)c(O)c1 [GALLIC ACID] | 2860 |  |
